Results reported in patent US20220274987A1, “PYRAZINO [1,2-B]QUINAZOLINE-3,6-DIONES DERIVATIVES, THEIR PRODUCTION AND USES THEREOF” (CIIMAR -CENTRO INTERDISCIPLINAR DE INVESTIGAÇÃO MARINHA E …, priority 2019, published 2022).
Converted amounts (≈) assume the structure as drawn. Read-outs that look alike come from different tables or passages of the source.

Experiments:
[1] = tested on: Vibrio harvevi; details: cited from earlier work
[2] = tested on: P. falciparum 3D7 strain; details: cited from earlier work
[3] = tested on: Staphylococcus aureus; details: cited from earlier work
[4] = tested on: Enterococcus faecalis; details: cited from earlier work
[5] = tested on: hemozoin; details: trophozoite stage; cited from earlier work
[6] = tested on: Plasmodium falciparum 3D7 strain; assay: In vitro susceptibility assay of P. falciparum, SYBR Green I; assay type: cell-based; details: for antimalarial activity (in words): P. falciparum 3D7; for IC50: Plasmodium falciparum
Description: The principle of the in vitro susceptibility test to malaria is to assess the degree of development of parasites P. falciparum in the presence of different concentrations of the compounds.
In the present disclosure, the antimalarial activity was also evaluated. Each compound was lyophilized and solubilized in DMSO (Sigma-Aldrich) to obtain a final concentration of 5 mM. Some intermediate dilutions were made to achieve the final concentration of 10 μM in the first well of the plate.
In an embodiment, the culture of P. falciparum was carried out as follows. […] Parasites were cultivated at 5% hematocrit, 37° C. and atmosphere with 5% of CO2, human serum was replaced with 0.5% AlbuMAXII (Invitrogen™) in the culture medium. Synchronized cultures were obtained by treatments with a 5% (m/v) solution of D-sorbitol (Sigma-Aldrich).
In the present disclosure, the in vitro susceptibility assay of P. falciparum using SYBR Green I was carried out as follows. […] Briefly, early ring stage parasites (>80% of rings, 3% haematocrit and 1% parasitaemia) were tested in duplicate in a 96-well plate and incubated with the compounds for 48 h (37° C., 5% CO2), parasite growth was assessed with SYBR Green I (Thermo Fisher Scientific). Each compound was tested in concentrations ranging from 10 to 0.001 μM. Fluorescence intensity was measured with a microplate reader with excitation and emission wavelengths of 485 and 535 nm, respectively, and analysed by nonlinear regression using GraphPad Prism 5 demo version to determine

[7] = tested on: Staphylococcus aureus ATCC 29213; assay: MIC/MBC broth dilution (CLSI), S. aureus reference strain; assay type: cell-based; details: S. aureus ATCC 29213
Text: (§1) In the present disclosure, two Gram-positive—Staphylococcus aureus ATCC 29213 and Enterococcus faecalis ATCC […] and two Gram-negative—Escherichia coli ATCC 25922 and Pseudomonas aeruginosa ATCC 27853—reference bacterial strains were used. When it was possible to determine a minimal inhibitory concentration (MIC) value for these strains, clinically relevant strains were also used. These included methicillin-resistant S. uareus (MRSA) 66/1, isolated from public buses, as well as a isolate sensitive to the most commonly used antibiotic families (S. aureus 40/61/24) and two vancomycin-resistant Enterococcus (VRE) strains isolated from river water, E. faecalis B3/101 and E. faecalis A5/102, which is sensitive to ampicillin. Frozen stocks of all strains were grown on Mueller-Hinton agar (MH-BioKar Diagnostics, Allone, France) at 37° C. for 24 h. All bacterial strains were sub-cultured on MH agar and incubated overnight at 37° C. before each assay, in order to obtain fresh cultures.
(§2) An initial screening of the antibacterial activity of the compounds was performed by the Kirby-Bauer disk diffusion method, as recommended by the Clinical and Laboratory Standards institute (CLSI). Briefly, sterile 6 mm blank paper disks (Oxoid, Basingstoke, England) impregnated with 15 μg of each compound were placed on inoculated MH agar plates. A blank disk with DMSO was used as a negative control. MH inoculated plates were incubated for 18-20 hours at 37° C. At the end of the incubation, the inhibition halos where measured. The minimal inhibitory concentration (MIC) was used to determine the antibacterial activity of each compound, in accordance with the recommendations of the CLSI. Two-fold serial dilutions of the compounds were prepared in Mueller-Hinton Broth 2 (MHB2-Sigma-Aldrich, St. Louis, Mo., USA) within the concentration range of 0.062-64 μg/mL. Cefotaxime (CTX) ranging between 0.031-16 μg/mL was used as a control. Sterility and growth controls were included in each assay. Purity check and colony counts of the inoculum suspensions were also performed in order to ensure that the final inoculum density closely approximates the intended number ([…]). The MIC was determined as the lowest concentration at which no visible growth was observed. The minimal bactericidal concentration (MBC) was assessed by spreading 10 μL of culture collected from wells showing no visible growth on MH agar plates. The MBC was determined as the lowest concentration at which no colonies grew after 16-18 hours incubation at 37° C. These assays were performed in duplicate.

[8] = tested on: S. aureus 40/61/24; assay: MIC/MBC broth dilution (CLSI), sensitive clinical isolate; assay type: cell-based; details: Staphylococcus aureus
Text: as §1, §2

[9] = tested on: hemozoin (β-hematin); assay: Inhibition of polymerization of hemozoin (β-hematin) in vitro; details: 12 and 16 at 48.0, 24.0, 12.0 μM; 31 at 96.0, 48.0, 24.0 μM; 24 h
[10] = tested on: healthy/non-parasitized erythrocytes; assay: Hemotoxicity in vitro (hemolysis assay); assay type: cell-based, human; details: at ≤10 μM
Description: In an embodiment, the evaluation of hemotoxicity in vitro was performed as follows. The in vitro hemolysis assay evaluates the release of hemoglobin in the medium (as an indicator of lysis of erythrocytes) after exposure to the test compounds.
In the present disclosure, the evaluation of hemotoxicity in vitro was performed as follows. In a 96-flat bottom plate 3% HTC, 20 μL of 20% Triton X-100, and 20 μL of PBS or RPMIc in 2% DMSO was added. Compounds were tested in a 1:4 serial dilution in concentrations ranging from 10 μM to 0.04 μM. After the incubation of 60 minutes, the plate was centrifuged at 2000 rpm for 5 minutes. 100 mL of Supernatant was transferred to a flat bottom plate. The absorbance reading was made at 450 nm in a Mode (Triad, Dynex Technologies). Two independent tests were carried out in triplicate. The results are presented in the form of a percentage of hemolysis-% hemolysis, obtained by the following formula; % Hemolysis=ABS (sample)/abs (C+)×100. Whereas C+ is a Triton x-100 to 20% solution RPMIc.

[11] = tested on: S. aureus 66/1 (MRSA); assay: MIC/MBC broth dilution (CLSI), MRSA; assay type: cell-based; details: Staphylococcus aureus
Text: as §1, §2

[12] = tested on: V79 cells; details: for DL50: 24 h; for SI (Selectivity Index): calculated by LD50/IC50 (V79 / P. falciparum 3D7)
Description: In the present disclosure, the cytotoxicity in vitro against mammalian cell was carried out as follows. Cytotoxicity was assessed on the mammalian cell line V79 (Chinese hamster lung), using an MTT based assay, as previously described [38B]. Tests were conducted in triplicate for each compound, at a range of concentrations (800 μM to 0.0512 μM), and with culture media containing 0.5% DMSO (no drug control); incubation time 24 h. Absorbance was read at 570 nm on a multi-mode microplate reader to produce a log dose-dependence curve. The LD50 value for each compound was estimated by non-linear interpolation of the dose-dependence curve (GraphPad Software).

[13] = tested on: E. faecalis ATCC 29212; assay: MIC/MBC broth dilution (CLSI), E. faecalis reference strain; assay type: cell-based, Enterococcus faecalis; details: Enterococcus faecalis
Text: as §1, §2

[14] = P. falciparum (3D7), 48 h, read-out: IC50

Compound: glyantypine [glyantypine (1)]
- MIC [1]: 32 µg/mL

Compound: Clc1ccc2nccc(N3CCC(CN4CCC(c5c[nH]c6ccccc56)CC4)CC3)c2c1 [TCMDC-134281 (8), TCMDC-134281]
- EC50 [2]: 34 nM

Compound: CC(C)[C@@H]1NC(=O)[C@@H](C[C@]2(O)c3ccccc3N3C(=O)[C@@H](C)N[C@H]32)n2c1nc1ccccc1c2=O [neofiscalin A (2), neofiscalin A]
- MIC [3]: 8 µg/mL (≈ 16.9 µM)
- MIC [4]: 8 µg/mL (≈ 16.9 µM)

Compound: O=C(C[C@H]1NCCC[C@@H]1O)Cn1cnc2ccccc2c1=O [Febrifugine (9, FF), febrifugine]
- inhibition of the formation of hemozoin (in words) [5]: significantly inhibits

Compound: CC(C)C[C@@H]1NC(=O)[C@@H](Cc2c[nH]c3ccccc23)n2c1nc1c(Cl)cc(Cl)cc1c2=O [Compound 31, (1S, 4R)-4-((1H-indol-3-yl)methyl)-8,10-dichloro-1-isobutyl-1,2-dihydro-6H-pyrazino[2,1-b]quinazoline-3,6(4H)-dione]
- antimalarial activity (in words) [6]: highest antimalarial activity
- IC50 ([6]; 3D7, 48 h): 200 nM
- antibacterial (inhibitory) effect (in words) [7]: inhibitory effect
- MBC ([7]; Staphylococcus aureus, ATCC29213): > 64 µg/mL
- MIC ([7]; Staphylococcus aureus, ATCC29213, read-out: MIC): 4 µg/mL (≈ 8.52 µM)
- MIC ([8]; 40/61/24): 8 µg/mL (≈ 17 µM)
- MBC ([8]; S. aureus 40/61/24): > 64 µg/mL
- inhibition of the polymerization of β-hematin in vitro (in words) [9]: did not show to inhibit
- hemolytic activity (in words) [10]: no hemolytic activity
- MBC [11]: > 64 µg/mL
- MIC [11]: 8 µg/mL (≈ 17 µM)
- DL50 ([12]; Mammalian cells (V79), MTT): 14.00 ± 1.41 µM
- MBC ([13]; ATCC29212): > 64 µg/mL
- MIC ([13]; ATCC29212, read-out: MIC): > 64 µg/mL

Compound: CC(C)[C@@H]1NC(=O)[C@@H](Cc2c[nH]c3ccccc23)n2c1nc1ccccc1c2=O [Compound 12, fiscalin B]
- antimalarial activity (in words) [6]: highest antimalarial activity
- IC50 [6, 14]: 100 ± 20 nM
- inhibition of the polymerization of β-hematin in vitro (in words) [9]: did not show to inhibit
- hemolytic activity (in words) [10]: no hemolytic activity
- DL50 ([12]; Chinese hamster): 1.91 ± 0.44 µM
- SI (Selectivity Index) [12]: 19

Compound: CC(C)C[C@@H]1NC(=O)[C@@H](Cc2c[nH]c3ccccc23)n2c1nc1ccccc1c2=O [Compound 16]
- antimalarial activity (in words) [6]: highest antimalarial activity
- IC50 [6, 14]: 50 ± 20 nM
- inhibition of the polymerization of β-hematin in vitro (in words) [9]: did not show to inhibit
- hemolytic activity (in words) [10]: no hemolytic activity
- DL50 ([12]; Chinese hamster): 1.78 ± 0.47 µM
- SI (Selectivity Index) [12]: 34
